Measurements reported in the supplement of paper PMC13380429.

What was measured:
Conditions in all cases: 72 h
Vero E6 [1] = assay: drug sensitivity score (DSS) for viability; higher = more toxic; extreme values may be limits of the assay
Calu-3 [2] = assay: as above
HepG2 [3] = assay: as above
Caco-2 [4] = assay: as above
U2OS [5] = assay: as above
Calu-3 [6] = assay: relative viability EC50 (midpoint between 100% and the lowest measured viability); higher = less toxic
U2OS [7] = assay: as above
Vero E6 [8] = assay: cell viability relative to DMSO; higher = less toxic
Calu-3 [9] = assay: as above
HepG2 [10] = assay: as above
Caco-2 [11] = assay: as above
U2OS [12] = assay: as above
Vero E6 [13] = assay: relative viability EC50 (midpoint between 100% and the lowest measured viability); higher = less toxic
HepG2 [14] = assay: as above

Row | Compound | drug sensitivity score (Vero E6 [1]) | drug sensitivity score (Calu-3 [2]) | drug sensitivity score (HepG2 [3]) | drug sensitivity score (Caco-2 [4]) | drug sensitivity score (U2OS [5]) | relative viability EC50 (Calu-3 [6]) [µM] | relative viability EC50 (U2OS [7]) [µM] | cell viability (Vero E6 [8]; 1 nM) [%] | cell viability (Vero E6 [8]; 10 nM) [%] | cell viability (Vero E6 [8]; 100 nM) [%] | cell viability (Vero E6 [8]; 1000 nM) [%] | cell viability (Vero E6 [8]; 10000 nM) [%] | cell viability (Calu-3 [9]; 1 nM) [%] | cell viability (Calu-3 [9]; 10 nM) [%] | cell viability (Calu-3 [9]; 100 nM) [%] | cell viability (Calu-3 [9]; 1000 nM) [%] | cell viability (Calu-3 [9]; 10000 nM) [%] | cell viability (HepG2 [10]; 1 nM) [%] | cell viability (HepG2 [10]; 10 nM) [%] | cell viability (HepG2 [10]; 100 nM) [%] | cell viability (HepG2 [10]; 1000 nM) [%] | cell viability (HepG2 [10]; 10000 nM) [%] | cell viability (Caco-2 [11]; 1 nM) [%] | cell viability (Caco-2 [11]; 10 nM) [%] | cell viability (Caco-2 [11]; 100 nM) [%] | cell viability (Caco-2 [11]; 1000 nM) [%] | cell viability (Caco-2 [11]; 10000 nM) [%] | cell viability (U2OS [12]; 1 nM) [%] | cell viability (U2OS [12]; 10 nM) [%] | cell viability (U2OS [12]; 100 nM) [%] | cell viability (U2OS [12]; 1000 nM) [%] | cell viability (U2OS [12]; 10000 nM) [%] | relative viability EC50 (Vero E6 [13]) [µM] | relative viability EC50 (HepG2 [14]) [µM]
1 | OCCN1CCN(CCCN2c3ccccc3Sc3ccc(Cl)cc32)CC1 [perphenazine] | 1.2 | 0.7 | 2.7 | 5.1 | 0 | > 10 | > 10 | 107 | 96.4 | 100 | 99.8 | 71.5 | 95.6 | 93.5 | 106 | 101 | 77.2 | 114 | 100 | 94.7 | 96 | 59.3 | 99.4 | 100 | 94.8 | 72.7 | 69.8 | 101 | 97 | 101 | 99.3 | 90.6 | – | –
2 | COc1ccc(C(=O)c2c(C)n(CCN3CCOCC3)c3ccccc23)cc1 [pravadoline] | 0 | – | 0 | 3.4 | 2.3 | – | – | 106 | 107 | 105 | 100 | 95.7 | – | – | – | – | – | 100 | 99.9 | 108 | 100 | 99.5 | 104 | 99.7 | 91.9 | 95.1 | 50.8 | 92 | 97.4 | 95.5 | 99.7 | 55.5 | > 10 | > 10
3 | O=C(C1CCCCC1)N1CC(=O)N2CCc3ccccc3C2C1 (stereo not drawn) [praziquantel] | 0 | 0 | 1 | 0.9 | 0 | > 10 | > 10 | 103 | 102 | 106 | 99.1 | 106 | 102 | 96.9 | 104 | 98.9 | 91.7 | 107 | 90.7 | 107 | 94.3 | 82.3 | 109 | 112 | 100 | 109 | 70.7 | 99 | 104 | 100 | 101 | 97.5 | > 10 | > 10
4 | CCOC(=O)[C@H](CCc1ccccc1)N[C@@H](C)C(=O)N1[C@H](C(=O)O)C[C@@H]2CCC[C@@H]21 [ramipril] | 0 | 0 | 0 | – | 0 | – | – | – | – | – | – | – | – | – | – | – | – | – | – | – | – | – | – | – | – | – | – | – | – | – | – | – | – | –
5 | C=CC(=O)Nc1cccc(Nc2nc(Nc3ccc(N4CCN(C(C)=O)CC4)cc3OC)ncc2C(F)(F)F)c1 [rociletinib] | 0.3 | 10 | 5.3 | 3.1 | 6.6 | 0.822 | 2.03 | 105 | 99.7 | 99.4 | 101 | 83 | 95.6 | 88.6 | 88.3 | 57.8 | 16.6 | 106 | 96.1 | 90.2 | 79.2 | 42.3 | 97.4 | 95.9 | 98.3 | 92.3 | 62.6 | 100 | 93.9 | 101 | 88 | 16.7 | > 10 | 1.38
6 | Cc1cc(C)nc(NS(=O)(=O)c2ccc(N)cc2)n1 [sulfamethazine] | 0 | 0 | 0 | – | 0 | – | – | – | – | – | – | – | – | – | – | – | – | – | – | – | – | – | – | – | – | – | – | – | – | – | – | – | – | –
7 | Nc1ccc(S(=O)(=O)Nc2cnc3ccccc3n2)cc1 [sulfaquinoxaline] | 0 | 0.4 | 0 | – | 0 | – | – | – | – | – | – | – | – | – | – | – | – | – | – | – | – | – | – | – | – | – | – | – | – | – | – | – | – | –
8 | C[C@H](NC(=O)C(C)(C)Oc1ccc(C(F)(F)F)cn1)[C@@H](Cc1ccc(Cl)cc1)c1cccc(C#N)c1 [taranabant] | 0.4 | 0 | 1 | 1.9 | 0 | > 10 | > 10 | 103 | 96.5 | 99.6 | 97.8 | 85.5 | 96.5 | 95.5 | 94.4 | 107 | 86.6 | 105 | 106 | 111 | 103 | 72.4 | 97.3 | 108 | 105 | 94.4 | 73.4 | 100 | 95.8 | 96.3 | 95.2 | 90.9 | > 10 | –
9 | O[C@@H](COc1cccc2ncccc12)CN1CCN([C@@H]2c3ccccc3[C@@H]3[C@H](c4ccccc42)C3(F)F)CC1 [zosuquidar] | 1.3 | 0.1 | 3 | 3.6 | 1.1 | > 10 | > 10 | 104 | 105 | 98.7 | 98.5 | 72.6 | 102 | 108 | 91.5 | 96.1 | 85.7 | 104 | 98.8 | 95.6 | 92.4 | 63.1 | 99.5 | 102 | 87.8 | 90.2 | 55.2 | 99 | 99.4 | 99.4 | 98.2 | 76.2 | – | –
